According to patent publication US12686673B2 (Blueprint Medicines Corporation, priority 2020, dated 2026):
pIC50: −log10 of the molar value. Counter-ions that a name gives are not always drawn.

Key:
Assay type in all cases: cell-based
[1] = molecular target: EGFR(D770_N771insSVD) expressing Ba/F3 stable cell line (Homo sapiens, UniProt P00533, DUP768-770, cells depend on it); experiment: Cellular proliferation (Alamar Blue) assay, EGFR D770_N771insSVD Ba/F3; settings: 72 hr, read-out: D770 IC50
Chain of EGFR(D770_N771insSVD) expressing Ba/F3 stable cell line (P00533 with tags, fused parts or gaps DUP768-770): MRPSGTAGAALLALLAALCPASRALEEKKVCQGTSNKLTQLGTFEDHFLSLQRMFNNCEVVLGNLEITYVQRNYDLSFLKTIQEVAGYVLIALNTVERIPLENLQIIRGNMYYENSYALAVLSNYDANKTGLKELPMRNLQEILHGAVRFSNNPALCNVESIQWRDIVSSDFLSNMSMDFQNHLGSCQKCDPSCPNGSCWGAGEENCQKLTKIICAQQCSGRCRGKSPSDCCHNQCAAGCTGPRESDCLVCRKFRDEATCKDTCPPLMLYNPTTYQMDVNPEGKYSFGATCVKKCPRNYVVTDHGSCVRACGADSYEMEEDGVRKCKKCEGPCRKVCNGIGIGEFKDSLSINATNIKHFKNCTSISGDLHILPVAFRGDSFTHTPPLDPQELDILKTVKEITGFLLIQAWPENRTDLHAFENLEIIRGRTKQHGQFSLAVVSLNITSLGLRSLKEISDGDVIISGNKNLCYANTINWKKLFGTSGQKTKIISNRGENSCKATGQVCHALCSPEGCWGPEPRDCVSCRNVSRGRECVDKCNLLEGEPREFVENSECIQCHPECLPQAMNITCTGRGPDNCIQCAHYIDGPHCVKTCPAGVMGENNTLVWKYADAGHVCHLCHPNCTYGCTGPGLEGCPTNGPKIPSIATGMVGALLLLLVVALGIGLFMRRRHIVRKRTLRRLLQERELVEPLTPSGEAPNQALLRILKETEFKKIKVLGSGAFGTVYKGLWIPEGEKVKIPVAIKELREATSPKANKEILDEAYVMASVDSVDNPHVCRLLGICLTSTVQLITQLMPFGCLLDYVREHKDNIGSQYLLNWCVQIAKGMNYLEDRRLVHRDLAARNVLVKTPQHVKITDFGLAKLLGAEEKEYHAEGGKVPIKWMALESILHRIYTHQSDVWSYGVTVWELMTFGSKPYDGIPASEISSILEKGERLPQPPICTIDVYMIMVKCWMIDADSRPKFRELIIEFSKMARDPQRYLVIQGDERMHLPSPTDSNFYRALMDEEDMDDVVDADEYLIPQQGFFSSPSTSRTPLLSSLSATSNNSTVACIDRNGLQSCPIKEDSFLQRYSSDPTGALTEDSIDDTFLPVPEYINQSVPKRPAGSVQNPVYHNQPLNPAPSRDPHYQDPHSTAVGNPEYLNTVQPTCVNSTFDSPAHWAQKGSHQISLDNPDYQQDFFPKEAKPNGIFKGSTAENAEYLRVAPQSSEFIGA
Procedure, shortened: (§1)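 Alamar Blue read-out, 3 h at 37 °C, after 72 hr compound exposure of Ba/F3 transfectants (15,000 cells/well, RPMI + 10% FBS, plated 16-18 h earlier).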

[2] = molecular target: EGFR (A767_dupASV) expressing Ba/F3 stable cell line (Homo sapiens, UniProt P00533, DUP767-769, cells depend on it); experiment: Cellular proliferation (Alamar Blue) assay, EGFR A767_dupASV Ba/F3; settings: 72 hr, read-out: A767 IC50
Chain of EGFR (A767_dupASV) expressing Ba/F3 stable cell line (P00533 with tags, fused parts or gaps DUP767-769): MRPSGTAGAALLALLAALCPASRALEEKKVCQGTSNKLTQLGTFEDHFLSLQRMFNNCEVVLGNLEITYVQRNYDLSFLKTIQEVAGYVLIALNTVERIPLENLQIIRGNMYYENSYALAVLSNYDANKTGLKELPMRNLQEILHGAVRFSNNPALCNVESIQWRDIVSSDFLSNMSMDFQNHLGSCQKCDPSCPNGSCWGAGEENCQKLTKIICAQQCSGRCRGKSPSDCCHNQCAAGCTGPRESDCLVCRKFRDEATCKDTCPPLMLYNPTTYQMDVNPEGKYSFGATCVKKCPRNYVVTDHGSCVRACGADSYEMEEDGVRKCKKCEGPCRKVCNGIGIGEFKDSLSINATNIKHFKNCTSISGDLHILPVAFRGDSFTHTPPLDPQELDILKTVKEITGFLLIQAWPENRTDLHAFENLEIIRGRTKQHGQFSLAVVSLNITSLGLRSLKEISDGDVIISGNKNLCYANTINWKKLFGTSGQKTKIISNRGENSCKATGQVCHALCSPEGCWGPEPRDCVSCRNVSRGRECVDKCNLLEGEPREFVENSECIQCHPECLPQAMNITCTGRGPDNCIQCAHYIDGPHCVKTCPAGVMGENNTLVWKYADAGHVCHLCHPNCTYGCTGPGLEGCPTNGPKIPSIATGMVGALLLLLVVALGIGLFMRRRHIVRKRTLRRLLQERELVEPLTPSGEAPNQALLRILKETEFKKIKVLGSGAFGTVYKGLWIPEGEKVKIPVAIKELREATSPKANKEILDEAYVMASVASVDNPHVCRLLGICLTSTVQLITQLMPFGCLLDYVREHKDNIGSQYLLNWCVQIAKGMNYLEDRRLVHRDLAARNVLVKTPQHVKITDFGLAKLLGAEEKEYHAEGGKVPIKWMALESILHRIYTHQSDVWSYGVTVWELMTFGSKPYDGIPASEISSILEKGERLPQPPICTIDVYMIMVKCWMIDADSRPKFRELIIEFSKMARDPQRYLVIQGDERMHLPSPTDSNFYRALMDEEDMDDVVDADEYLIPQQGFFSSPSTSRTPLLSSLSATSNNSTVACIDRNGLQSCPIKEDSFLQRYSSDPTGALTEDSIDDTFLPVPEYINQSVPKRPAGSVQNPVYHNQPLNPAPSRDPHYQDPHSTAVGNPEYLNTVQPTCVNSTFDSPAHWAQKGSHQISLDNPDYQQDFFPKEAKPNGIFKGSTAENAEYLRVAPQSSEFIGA
Procedure, shortened: as §1

A431 cells = experiment: Cellular proliferation (Alamar Blue) assay, A431; settings: Homo sapiens, A-431; A431 cells, Alamar Blue, 72 hr; read-out: A431 IC50
[3] = molecular target: EGFR (H773insNPH) expressing Ba/F3 stable cell line (Homo sapiens, UniProt P00533, DUP771-773, cells depend on it); experiment: Cellular proliferation (Alamar Blue) assay, EGFR H773insNPH Ba/F3; settings: 72 hr, read-out: NPH IC50
Chain of EGFR (H773insNPH) expressing Ba/F3 stable cell line (P00533 with tags, fused parts or gaps DUP771-773): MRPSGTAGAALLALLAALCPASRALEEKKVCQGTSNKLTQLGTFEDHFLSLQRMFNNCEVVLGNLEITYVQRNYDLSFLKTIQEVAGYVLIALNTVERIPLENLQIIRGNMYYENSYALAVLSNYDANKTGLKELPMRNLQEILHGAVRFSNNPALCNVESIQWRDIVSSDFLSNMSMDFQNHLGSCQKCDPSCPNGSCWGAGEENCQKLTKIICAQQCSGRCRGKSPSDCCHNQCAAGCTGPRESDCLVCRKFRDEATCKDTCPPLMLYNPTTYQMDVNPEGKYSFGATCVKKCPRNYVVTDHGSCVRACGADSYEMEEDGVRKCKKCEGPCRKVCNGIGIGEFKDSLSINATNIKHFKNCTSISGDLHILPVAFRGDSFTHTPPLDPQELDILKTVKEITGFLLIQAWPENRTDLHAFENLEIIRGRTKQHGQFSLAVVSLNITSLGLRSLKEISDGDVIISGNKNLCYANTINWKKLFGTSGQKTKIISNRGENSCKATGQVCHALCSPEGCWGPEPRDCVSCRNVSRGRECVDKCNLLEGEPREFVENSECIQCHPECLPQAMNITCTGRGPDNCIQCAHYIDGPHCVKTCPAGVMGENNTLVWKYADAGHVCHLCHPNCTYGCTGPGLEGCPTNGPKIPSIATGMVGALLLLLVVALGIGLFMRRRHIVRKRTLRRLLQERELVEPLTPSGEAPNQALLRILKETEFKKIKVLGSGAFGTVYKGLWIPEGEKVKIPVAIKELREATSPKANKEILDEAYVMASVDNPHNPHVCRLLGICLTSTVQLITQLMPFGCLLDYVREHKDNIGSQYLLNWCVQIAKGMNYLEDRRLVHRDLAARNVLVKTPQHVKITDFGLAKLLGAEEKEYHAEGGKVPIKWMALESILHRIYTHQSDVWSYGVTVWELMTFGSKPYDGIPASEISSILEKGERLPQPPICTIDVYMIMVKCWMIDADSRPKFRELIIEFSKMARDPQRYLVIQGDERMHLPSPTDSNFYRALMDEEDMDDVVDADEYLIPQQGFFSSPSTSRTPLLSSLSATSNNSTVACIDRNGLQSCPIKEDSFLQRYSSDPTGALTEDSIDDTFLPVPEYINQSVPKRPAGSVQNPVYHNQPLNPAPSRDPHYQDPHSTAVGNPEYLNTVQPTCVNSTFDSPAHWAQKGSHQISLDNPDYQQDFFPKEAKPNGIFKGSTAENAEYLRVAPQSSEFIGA
Procedure, shortened: as §1

[4] = molecular target: HER2 (A775_G776insYVMA) expressing Ba/F3 stable cell line (Homo sapiens, UniProt P04626, DUP772-775, cells depend on it); experiment: Cellular proliferation (Alamar Blue) assay, HER2 A775_G776insYVMA Ba/F3; settings: 72 hr, read-out: YVMA IC50
Chain of HER2 (A775_G776insYVMA) expressing Ba/F3 stable cell line (P04626 with tags, fused parts or gaps DUP772-775): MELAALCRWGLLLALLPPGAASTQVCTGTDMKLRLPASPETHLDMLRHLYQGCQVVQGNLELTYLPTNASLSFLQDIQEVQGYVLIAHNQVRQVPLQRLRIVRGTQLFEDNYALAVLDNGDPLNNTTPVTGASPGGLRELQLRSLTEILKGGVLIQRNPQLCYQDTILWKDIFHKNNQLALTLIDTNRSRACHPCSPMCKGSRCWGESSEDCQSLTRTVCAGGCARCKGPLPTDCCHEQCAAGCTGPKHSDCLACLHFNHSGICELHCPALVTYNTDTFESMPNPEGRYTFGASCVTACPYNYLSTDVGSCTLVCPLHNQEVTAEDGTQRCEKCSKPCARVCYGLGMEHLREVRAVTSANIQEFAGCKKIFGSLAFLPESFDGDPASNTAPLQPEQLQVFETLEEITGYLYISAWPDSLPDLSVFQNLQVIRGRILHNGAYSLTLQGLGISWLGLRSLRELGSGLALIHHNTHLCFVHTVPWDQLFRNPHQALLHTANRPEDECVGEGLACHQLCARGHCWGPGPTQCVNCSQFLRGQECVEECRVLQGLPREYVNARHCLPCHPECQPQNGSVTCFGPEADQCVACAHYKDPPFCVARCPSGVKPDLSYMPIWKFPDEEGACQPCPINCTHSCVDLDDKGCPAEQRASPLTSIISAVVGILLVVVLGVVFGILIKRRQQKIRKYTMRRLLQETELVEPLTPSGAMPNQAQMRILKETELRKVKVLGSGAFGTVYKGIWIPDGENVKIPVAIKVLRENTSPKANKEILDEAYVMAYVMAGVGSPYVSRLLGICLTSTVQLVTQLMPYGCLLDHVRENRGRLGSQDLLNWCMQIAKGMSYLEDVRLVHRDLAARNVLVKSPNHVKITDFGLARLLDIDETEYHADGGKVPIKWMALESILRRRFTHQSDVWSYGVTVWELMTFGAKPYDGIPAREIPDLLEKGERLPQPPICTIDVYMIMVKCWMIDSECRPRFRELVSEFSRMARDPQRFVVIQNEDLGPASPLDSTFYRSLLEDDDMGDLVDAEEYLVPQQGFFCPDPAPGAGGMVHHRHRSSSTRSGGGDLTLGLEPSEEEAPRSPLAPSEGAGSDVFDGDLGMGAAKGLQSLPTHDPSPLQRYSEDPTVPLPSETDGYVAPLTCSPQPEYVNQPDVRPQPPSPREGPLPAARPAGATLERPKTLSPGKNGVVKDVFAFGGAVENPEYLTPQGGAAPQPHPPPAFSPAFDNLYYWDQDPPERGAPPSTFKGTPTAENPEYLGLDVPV
Procedure, shortened: as §1

SMILES | GI50 [1] [µM] | GI50 [2] [µM] | pIC50 (A431 cells) | GI50 [3] [µM] | GI50 [4] [µM]
C=CC(=O)Nc1ccc(F)c(Nc2nc(Nc3cnn(C)c3)ncc2-c2ccc(N3CCOCC3)cc2)c1 [Compound 94, N-(4-fluoro-3-((2-((1-methyl-1H-pyrazol-4-yl)amino)-5-(4-morpholinophenyl)pyrimidin-4-yl)amino)phenyl)acrylamide] | 0.542 | 0.109 | < 5.00 | 0.448 | 1.27
C=CC(=O)Nc1ccc(F)c(Nc2nc(Nc3cnn(C)c3)ncc2-c2cncc(OC(F)F)c2)c1 [Compound 95, N-(3-((5-(5-(difluoromethoxy)pyridin-3-yl)-2-((1-methyl-1H-pyrazol-4-yl)amino)pyrimidin-4-yl)amino)-4-fluorophenyl)acrylamide] | 0.038 | 0.027 | 6.99 | 0.045 | 0.101
C=CC(=O)Nc1cccc(Oc2nc(Nc3cnn(C)c3)ncc2-c2cncc(C(F)(F)F)c2)c1 [Compound 104, N-(3-((2-((1-methyl-1H-pyrazol-4-yl)amino)-5-(5-(trifluoromethyl)pyridin-3-yl)pyrimidin-4-yl)oxy)phenyl)acrylamide] | 0.107 | 0.104 | 5.95 | 0.101 | 0.115
C=CC(=O)Nc1cccc(Oc2nc(Nc3cnn(C)c3)ncc2-c2ccc(C(F)F)cc2)c1 [Compound 105, N-(3-((5-(4-(difluoromethyl)phenyl)-2-((1-methyl-1H-pyrazol-4-yl)amino)pyrimidin-4-yl)oxy)phenyl)acrylamide] | 0.037 | 0.049 | 6.77 | 0.075 | 0.105
C=CC(=O)Nc1ccc(F)c(Nc2nc(Nc3cnn(C)c3)ncc2-c2ccc(C(F)F)nc2)c1 [Compound 106, N-(3-((5-(6-(difluoromethyl)pyridin-3-yl)-2-((1-methyl-1H-pyrazol-4-yl)amino)pyrimidin-4-yl)amino)-4-fluorophenyl)acrylamide] | 0.016 | 0.035 | 7.03 | 0.025 | 0.038
C=CC(=O)Nc1cccc(Oc2nc(Nc3cnn(C)c3)ncc2-c2ccc(C(F)(F)F)nc2)c1 [Compound 108, N-(3-((2-((1-methyl-1H-pyrazol-4-yl)amino)-5-(6-(trifluoromethyl)pyridin-3-yl)pyrimidin-4-yl)oxy)phenyl)acrylamide] | 0.104 | 0.056 | 6.47 | 0.294 | 0.3
C=CC(=O)Nc1cccc(Oc2nc(Nc3cnn(C)c3)ncc2-c2ccc(F)nc2)c1 [Compound 109, N-(3-((5-(6-fluoropyridin-3-yl)-2-((1-methyl-1H-pyrazol-4-yl)amino)pyrimidin-4-yl)oxy)phenyl)acrylamide] | 0.1 | 0.053 | 6.21 | 0.112 | 0.344
C=CC(=O)Nc1cccc(Nc2nc(Nc3cnn(C)c3)ncc2-c2cccc(F)c2)c1 [Compound 115, N-(3-((5-(3-fluorophenyl)-2-((1-methyl-1H-pyrazol-4-yl)amino)pyrimidin-4-yl)amino)phenyl)acrylamide trifluoroacetate] | 0.016 | 0.039 | 7.00 | 0.03 | 0.025
C=CC(=O)Nc1ccc(F)c(Nc2nc(Nc3cnn(C)c3)ncc2-c2cncc(N(C)C)c2)c1 [Compound 116, N-(3-((5-(5-(dimethylamino)pyridin-3-yl)-2-((1-methyl-1H-pyrazol-4-yl)amino)pyrimidin-4-yl)amino)-4-fluorophenyl)acrylamide trifluoroacetate] | 0.108 | 0.094 | 6.97 | 0.136 | 0.251
C=CC(=O)Nc1ccc(F)c(Nc2nc(Nc3cnn(C)c3)ncc2-c2ccnc(Cl)c2)c1 [Compound 117, N-(3-((5-(2-chloropyridin-4-yl)-2-((1-methyl-1H-pyrazol-4-yl)amino)pyrimidin-4-yl)amino)-4-fluorophenyl)acrylamide] | 0.086 | 0.057 | 7.07 | 0.107 | 0.16

Second part, the compound after the results:

GI50 [1] [µM] | GI50 [2] [µM] | pIC50 (A431 cells) | GI50 [3] [µM] | GI50 [4] [µM] | SMILES
0.037 | 0.096 | 7.17 | 0.075 | 0.171 | C=CC(=O)Nc1ccc(F)c(Nc2nc(Nc3cnn(C)c3)ncc2-c2ccc(C(F)F)cc2)c1 [Compound 99, N-(3-((5-(4-(difluoromethyl)phenyl)-2-((1-methyl-1H-pyrazol-4-yl)amino)pyrimidin-4-yl)amino)-4-fluorophenyl)acrylamide]
0.038 | 0.072 | 6.33 | 0.053 | 0.203 | C=CC(=O)Nc1ccc(F)c(Nc2nc(Nc3cnn(C)c3)ncc2-c2ccc(F)nc2)c1 [Compound 100, N-(4-fluoro-3-((5-(6-fluoropyridin-3-yl)-2-((1-methyl-1H-pyrazol-4-yl)amino)pyrimidin-4-yl)amino)phenyl)acrylamide]
0.157 | 0.287 | 6.31 | 0.281 | 0.461 | C=CC(=O)Nc1ccc(F)c(Nc2nc(Nc3cnn(C)c3)ncc2-c2ccc(N(C)C)cc2)c1 [Compound 103, N-(3-((5-(4-(dimethylamino)phenyl)-2-((1-methyl-1H-pyrazol-4-yl)amino)pyrimidin-4-yl)amino)-4-fluorophenyl)acrylamide]
0.048 | 0.041 | 7.57 | 0.103 | 0.138 | C=CC(=O)Nc1cccc(Nc2nc(Nc3cnn(C)c3)ncc2-c2ccc(C(F)(F)F)cc2)c1 [Compound 111, N-(3-((2-((1-methyl-1H-pyrazol-4-yl)amino)-5-(4-(trifluoromethyl)phenyl)pyrimidin-4-yl)amino)phenyl)acrylamide]
0.093 | 0.08 | 7.06 | 0.138 | 0.288 | C=CC(=O)Nc1ccc(F)c(Nc2nc(Nc3cn(C)nc3Cl)ncc2-c2ccc(C(F)(F)F)cc2)c1 [Compound 112, N-(3-((2-((3-chloro-1-methyl-1H-pyrazol-4-yl)amino)-5-(4-(trifluoromethyl)phenyl)pyrimidin-4-yl)amino)-4-fluorophenyl)acrylamide trifluoroacetate]
0.12 | 0.257 | 7.03 | 0.235 | 0.413 | C=CC(=O)Nc1ccc(F)c(Nc2nc(Nc3cn(C)nc3C)ncc2-c2ccc(C(F)(F)F)cc2)c1 [Compound 135, N-(3-((2-((1,3-dimethyl-1H-pyrazol-4-yl)amino)-5-(4-(trifluoromethyl)phenyl)pyrimidin-4-yl)amino)-4-fluorophenyl)acrylamide trifluoroacetate]
0.116 | 0.125 | < 5.00 | 0.148 | 0.69 | C=CC(=O)Nc1ccc(F)c(Nc2nc(Nc3cnn(C4COC4)c3)ncc2-c2ccc(C(F)(F)F)cc2)c1 [Compound 139, N-(4-fluoro-3-((2-((1-(oxetan-3-yl)-1H-pyrazol-4-yl)amino)-5-(4-(trifluoromethyl)phenyl)pyrimidin-4-yl)amino)phenyl)acrylamide]
